Molecular target: skeletal myofibrils (myosin ATPase)
Assay: Skeletal Myofibril ATPase Assay
Assay type: biochemical
Details: Table 4C
Method in brief: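 Skeletal myofibril ATPase activity was measured via PK-LDH coupling, following NADH loss at 340 nm every 1.5-2 min for 45 min in PIPES/CaCl2/EGTA pCa buffer, pH 7.0. Max−Min slopes were normalised to 1% DMSO vehicle (100%) and fit to a four-parameter logistic (bottom ≥0) for IC50.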

## COc1ccc(-c2ccc(=O)n(CC(=O)NCc3ccccc3F)n2)cc1 [IIIb-38, N-(2-fluorobenzyl)-2-(3-(4-methoxyphenyl)-6-oxopyridazin-1(6H)-yl)acetamide]
  IC50: > 100 µM

## COc1ccc(-c2ccc(=O)n(CC(=O)NC[C@@H]3CC4C=CC3C4)n2)cc1 (stereo partly drawn) [IIIb-39, N-(((2R)-bicyclo[2.2.1]hept-5-en-2-yl)methyl)-2-(3-(4-methoxyphenyl)-6-oxopyridazin-1(6H)-yl)acetamide]
  IC50: > 100 µM

## COc1ccc(-c2ccc(=O)n(CC(=O)NCc3ccccc3Cl)n2)cc1OC [IIIb-40, N-(2-chlorobenzyl)-2-(3-(3,4-dimethoxyphenyl)-6-oxopyridazin-1(6H)-yl)acetamide]
  IC50: > 100 µM

## COc1ccc(-c2ccc(=O)n(CC(=O)NC3CCCCC3)n2)cc1 [IIIb-41, N-cyclohexyl-2-(3-(4-methoxyphenyl)-6-oxopyridazin-1(6H)-yl)acetamide]
  IC50: > 100 µM

## CCOc1ccc(-c2ccc(=O)n(CCNC(=O)CC3CCCC3)n2)cc1 [IIIb-43, 2-cyclopentyl-N-(2-(3-(4-ethoxyphenyl)-6-oxopyridazin-1(6H)-yl)ethyl)acetamide]
  IC50: > 100 µM

## CCc1ccc(-c2ccc(=O)n(CC(=O)Nc3ccc4c(c3)OCCO4)n2)cc1 [IIIb-44, N-(2,3-dihydrobenzo[b][1,4]dioxin-6-yl)-2-(3-(4-ethylphenyl)-6-oxopyridazin-1(6H)-yl)acetamide]
  IC50: > 100 µM

## COc1ccc(-c2ccc(=O)n(CC(=O)NC3CCCC3)n2)cc1OC [IIIb-45, N-cyclopentyl-2-(3-(3,4-dimethoxyphenyl)-6-oxopyridazin-1(6H)-yl)acetamide]
  IC50: > 100 µM

## COc1ccc(-c2ccc(=O)n(CC(=O)NCc3ccc(F)cc3)n2)c(F)c1 [IIIb-46, 2-(3-(2-fluoro-4-methoxyphenyl)-6-oxopyridazin-1(6H)-yl)-N-(4-fluorobenzyl)acetamide]
  IC50: > 100 µM

## COCCNC(=O)Cn1nc(-c2ccc(OC)cc2)ccc1=O [IIIb-47, N-(2-methoxyethyl)-2-(3-(4-methoxyphenyl)-6-oxopyridazin-1(6H)-yl)acetamide]
  IC50: > 100 µM

## COc1ccc(-c2ccc(=O)n(CC(=O)NCCC(C)C)n2)cc1 [IIIb-48, N-isopentyl-2-(3-(4-methoxyphenyl)-6-oxopyridazin-1(6H)-yl)acetamide]
  IC50: > 100 µM

## COc1ccc(-c2ccc(=O)n(CC(=O)NCc3ccc(OC)c(OC)c3)n2)cc1 [IIIb-49, N-(3,4-dimethoxybenzyl)-2-(3-(4-methoxyphenyl)-6-oxopyridazin-1(6H)-yl)acetamide]
  IC50: > 100 µM

## COc1ccc(-c2ccc(=O)n(CC(=O)NCc3ccc(F)cc3)n2)cc1 [IIIb-50, N-(4-fluorobenzyl)-2-(3-(4-methoxyphenyl)-6-oxopyridazin-1(6H)-yl)acetamide]
  IC50: > 100 µM

## COc1ccc(-c2ccc(=O)n(CC(=O)NCCc3ccc(OC)c(OC)c3)n2)cc1 [IIIb-51, N-(3,4-dimethoxyphenethyl)-2-(3-(4-methoxyphenyl)-6-oxopyridazin-1(6H)-yl)acetamide]
  IC50: > 100 µM

## COc1ccc(-c2ccc(=O)n(CC(=O)Nc3cccc(Cl)c3)n2)cc1 [IIIb-52, N-(3-chlorophenyl)-2-(3-(4-methoxyphenyl)-6-oxopyridazin-1(6H)-yl)acetamide]
  IC50: > 100 µM

## COc1ccc(-c2ccc(=O)n(CC(=O)NCc3ccco3)n2)cc1 [IIIb-53, N-(furan-2-ylmethyl)-2-(3-(4-methoxyphenyl)-6-oxopyridazin-1(6H)-yl)acetamide]
  IC50: > 100 µM

## COc1ccc(-c2ccc(=O)n(CC(=O)NCc3ccccc3)n2)c(F)c1 [IIIb-54, N-benzyl-2-(3-(2-fluoro-4-methoxyphenyl)-6-oxopyridazin-1(6H)-yl)acetamide]
  IC50: > 100 µM

## COc1ccc(-c2ccc(=O)n(CC(=O)NCc3cccc(F)c3)n2)c(F)c1 [IIIb-55, 2-(3-(2-fluoro-4-methoxyphenyl)-6-oxopyridazin-1(6H)-yl)-N-(3-fluorobenzyl)acetamide]
  IC50: > 100 µM

## COc1ccc(-c2ccc(=O)n(CC(=O)Nc3ccc(C(C)C)cc3)n2)cc1 [IIIb-56, N-(4-isopropylphenyl)-2-(3-(4-methoxyphenyl)-6-oxopyridazin-1(6H)-yl)acetamide]
  IC50: > 100 µM

## COc1ccc(-c2ccc(=O)n(CC(=O)NCCC(C)C)n2)c(F)c1 [IIIb-57, 2-(3-(2-fluoro-4-methoxyphenyl)-6-oxopyridazin-1(6H)-yl)-N-isopentylacetamide]
  IC50: > 100 µM

## COc1ccc(-c2ccc(=O)n(CC(=O)NC3CC3)n2)c(F)c1 [IIIb-58, N-cyclopropyl-2-(3-(2-fluoro-4-methoxyphenyl)-6-oxopyridazin-1(6H)-yl)acetamide]
  IC50: > 100 µM

## COc1ccc(-c2ccc(=O)n(CC(=O)Nc3cccc(C)n3)n2)cc1 [IIIb-59, 2-(3-(4-methoxyphenyl)-6-oxopyridazin-1(6H)-yl)-N-(6-methylpyridin-2-yl)acetamide]
  IC50: > 100 µM

## COc1ccc(-c2ccc(=O)n(CC(=O)NC3CCCCC3)n2)c(F)c1 [IIIb-60, N-cyclohexyl-2-(3-(2-fluoro-4-methoxyphenyl)-6-oxopyridazin-1(6H)-yl)acetamide]
  IC50: > 100 µM

## CCc1cccc(NC(=O)Cn2nc(-c3ccc(C)cc3)ccc2=O)c1 [IIIc-1, N-(3-ethylphenyl)-2-(6-oxo-3-(p-tolyl)pyridazin-1(6H)-yl)acetamide]
  IC50: < 10 µM

## CC[C@H](C)NC(=O)Cn1nc(-c2ccc(C)cc2)ccc1=O [IIIc-2, (S)-N-(sec-butyl)-2-(6-oxo-3-(p-tolyl)pyridazin-1(6H)-yl)acetamide]
  IC50: < 10 µM

## Cc1ccc(-c2ccc(=O)n(CC(=O)NCCc3ccccc3)n2)cc1 [IIIc-3, 2-(6-oxo-3-(p-tolyl)pyridazin-1(6H)-yl)-N-phenethylacetamide]
  IC50: < 10 µM

## Cc1ccc(-c2ccc(=O)n(CC(=O)NC3CCCCCC3)n2)cc1 [IIIc-4, N-cycloheptyl-2-(6-oxo-3-(p-tolyl)pyridazin-1(6H)-yl)acetamide]
  IC50: 10 to 100 µM

## Cc1ccc(-c2ccc(=O)n(CC(=O)NC3CCCC3)n2)cc1 [IIIc-5, N-cyclopentyl-2-(6-oxo-3-(p-tolyl)pyridazin-1(6H)-yl)acetamide]
  IC50: 10 to 100 µM

## Cc1ccc(-c2ccc(=O)n(CC(=O)NC3CCCCC3)n2)cc1 [IIIc-6, N-cyclohexyl-2-(6-oxo-3-(p-tolyl)pyridazin-1(6H)-yl)acetamide]
  IC50: 10 to 100 µM

## COc1ccc(-c2ccc(=O)n(CC(=O)N(C)c3ccccc3)n2)cc1 [IIIc-7, 2-(3-(4-methoxyphenyl)-6-oxopyridazin-1(6H)-yl)-N-methyl-N-phenylacetamide]
  IC50: 10 to 100 µM

## Cn1ccc2c(NC(=O)Cn3nc(-c4ccc(F)cc4)ccc3=O)cccc21 [IIIc-16, 2-(3-(4-fluorophenyl)-6-oxopyridazin-1(6H)-yl)-N-(1-methyl-1H-indol-4-yl)acetamide]
  IC50: < 10 µM

## O=C(Cn1nc(-c2ccc(Cl)cc2)ccc1=O)Nc1cccc2[nH]ccc12 [IIIc-19, 2-(3-(4-chlorophenyl)-6-oxopyridazin-1(6H)-yl)-N-(1H-indol-4-yl)acetamide]
  IC50: < 10 µM

## Cn1ccc2c(NC(=O)Cn3nc(-c4ccc(Cl)cc4)ccc3=O)cccc21 [IIIc-20, 2-(3-(4-chlorophenyl)-6-oxopyridazin-1(6H)-yl)-N-(1-methyl-1H-indol-4-yl)acetamide]
  IC50: < 10 µM

## O=C(Cn1nc(-c2ccc(Cl)cc2)ccc1=O)Nc1ccc2[nH]ccc2c1 [IIIc-22, 2-(3-(4-chlorophenyl)-6-oxopyridazin-1(6H)-yl)-N-(1H-indol-5-yl)acetamide]
  IC50: < 10 µM

## COc1ccccc1NC(=O)Cn1nc(-c2ccc(Cl)cc2)ccc1=O [IIIc-23, 2-(3-(4-chlorophenyl)-6-oxopyridazin-1(6H)-yl)-N-(2-methoxyphenyl)acetamide]
  IC50: < 10 µM

## O=C(Cn1nc(-c2ccc(Cl)cc2)ccc1=O)Nc1ccccc1F [IIIc-27, 2-(3-(4-chlorophenyl)-6-oxopyridazin-1(6H)-yl)-N-(2-fluorophenyl)acetamide]
  IC50: 10 to 100 µM

## O=C(Cn1nc(-c2ccc(Cl)cc2)ccc1=O)Nc1ccccc1Cl [IIIc-28, N-(2-chlorophenyl)-2-(3-(4-chlorophenyl)-6-oxopyridazin-1(6H)-yl)acetamide]
  IC50: < 10 µM

## CC[C@H](C)NC(=O)Cn1nc(-c2ccc(Cl)cc2)ccc1=O [IIIc-30, (S)-N-(sec-butyl)-2-(3-(4-chlorophenyl)-6-oxopyridazin-1(6H)-yl)acetamide]
  IC50: 10 to 100 µM

## COc1ccc(NC(=O)Cn2nc(-c3ccc(F)cc3)ccc2=O)c(OC)c1 [IIIc-31, N-(2,4-dimethoxyphenyl)-2-(3-(4-fluorophenyl)-6-oxopyridazin-1(6H)-yl)acetamide]
  IC50: 10 to 100 µM

## CN(Cc1ccccc1)C(=O)Cn1nc(-c2ccc(Cl)cc2)ccc1=O [IIIc-32, N-benzyl-2-(3-(4-chlorophenyl)-6-oxopyridazin-1(6H)-yl)-N-methylacetamide]
  IC50: 10 to 100 µM

## CC(C)OCCCNC(=O)Cn1nc(-c2ccc(Cl)cc2)ccc1=O [IIIc-33, 2-(3-(4-chlorophenyl)-6-oxopyridazin-1(6H)-yl)-N-(3-isopropoxypropyl)acetamide]
  IC50: 10 to 100 µM

## CC(C)CNC(=O)Cn1nc(-c2ccc(Cl)cc2)ccc1=O [IIIc-35, 2-(3-(4-chlorophenyl)-6-oxopyridazin-1(6H)-yl)-N-isobutylacetamide]
  IC50: 10 to 100 µM

## CC(C)NC(=O)Cn1nc(-c2ccc(Br)cc2)ccc1=O [IIIc-40, 2-(3-(4-bromophenyl)-6-oxopyridazin-1(6H)-yl)-N-isopropylacetamide]
  IC50: 10 to 100 µM

## O=C(Cn1nc(-c2ccc(F)cc2)ccc1=O)NCCc1c[nH]c2ccccc12 [IIIc-44, N-(2-(1H-indol-3-yl)ethyl)-2-(3-(4-fluorophenyl)-6-oxopyridazin-1(6H)-yl)acetamide]
  IC50: 10 to 100 µM

## O=C(Cn1nc(-c2ccccc2)ccc1=O)NCc1ccccc1Cl [IIIc-47, N-(2-chlorobenzyl)-2-(6-oxo-3-phenylpyridazin-1(6H)-yl)acetamide]
  IC50: 10 to 100 µM

## O=C(Cn1nc(-c2ccccc2)ccc1=O)NCCC1=CCCCC1 [IIIc-48, N-(2-(cyclohex-1-en-1-yl)ethyl)-2-(6-oxo-3-phenylpyridazin-1(6H)-yl)acetamide]
  IC50: < 10 µM
